Results as given in patent US20250084121A1, “BIOREACTIVE COMPOSITIONS AND METHODS OF USE THEREOF” (The Regents of the University of California, priority 2018, published 2025).

Key:
[1] = tested on: STAT5 phosphorylation in BAF3 cells, a cell line with hGH receptor expression; experiment: pSTAT5 production in BAF3 cells upon stimulation by hGH (Western blot); assay type: cell-based; settings: Western blot of cell lysates
Description: It was also examined whether FSY incorporation into hGH would affect its biological activity. Upon hGH binding with its receptor, STAT5 is phosphorylated as a downstream signal via the JAK/STAT pathway, leading to transcription of genes important for cell immunity, proliferation, and apoptosis (Waters, M J. et al. Clin. Exp. Pharmacol. Physiol. 1999, 10760-764). The inventors stimulated BAF3 cells, a cell line with hGH receptor expression, with hGH(WT) and hGH(FSY), and then probed pSTAT5 expression using Western blot analysis of cell lysates.

[2] = target: T1, extracellular domain of the hGH receptor (Homo sapiens, UniProt P10912); experiment: Covalent crosslinking of hGH with the extracellular domain of hGH receptor (Western blot); assay type: binding; settings: PBS buffer, different durations of time, Western blot anti-Hisx6
T1 construct: incubated with the extracellular domain of the hGH receptor
T1 sequence (P10912 19-264): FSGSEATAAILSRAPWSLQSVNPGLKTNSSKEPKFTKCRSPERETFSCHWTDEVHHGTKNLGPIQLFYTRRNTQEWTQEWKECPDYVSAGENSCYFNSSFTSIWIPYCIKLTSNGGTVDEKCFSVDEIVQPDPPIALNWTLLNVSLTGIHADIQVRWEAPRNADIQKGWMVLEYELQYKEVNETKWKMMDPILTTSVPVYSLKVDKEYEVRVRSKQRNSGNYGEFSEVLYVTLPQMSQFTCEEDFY

[3] = tested on: HeLa-EGFP-182TAG reporter cells; experiment: Fluorescence confocal microscopy of reporter cells; assay type: cell-based; settings: in the presence of FSY
Procedure: FSY incorporation into proteins in mammalian cells was tested. HeLa-EGFP-182TAG reporter cells were transfected with plasmid pMP-FSYRS-3×tRNA, which expresses FSYRS and tRNA^Pyl genes. Wang et al, Nat. Neurosci., 10:1063-1072 (2007). Suppression of the 182TAG codon would produce full-length EGFP rendering cells fluorescent. After transfection, cells were incubated with FSY of various concentrations at 37° C. for 24 or 48 h followed by flow cytometry. […] The fluorescence intensity increased with FSY concentration and incubation time (FIG. 2B, FIG. 7). As a positive control, p-azido-L-phenylalanine (AzF) was incorporated into reporter cells in parallel using plasmid pIre-Azi3, which is the most efficient Uaa incorporation system in mammalian cells in our hands. Coin et al, Cell, 155:1258-1269 (2013). FSY incorporation compared favorably with AzF, reaching 76% of the AzF level. […] Chen et al, J. Am. Chem. Soc., 138:7353-7364 (2016). […] No fluorescence signal was detected when FSY was not added.
Fluorescence confocal microscopy of HeLa-EGFP-182TAG reporter cells: One day before transfection, 4.5×10^4 HeLa-EGFP-182TAG cells were seeded in a Greiner bio-one CELLview glass bottom dish containing 500 μL of DMEM media with 10% FBS, and incubated at 37° C. in a CO2 incubator. […]

[4] = tested on: 293T cells; experiment: Cell viability assay with various concentrations of FSY; assay type: cell-based
[5] = tested on: HeLa-EGFP-182TAG reporter cells; experiment: FACS analysis of Uaa incorporation into EGFP-182TAG reporter cells; assay type: cell-based
Procedure: FSY incorporation into proteins in mammalian cells was tested. HeLa-EGFP-182TAG reporter cells were transfected with plasmid pMP-FSYRS-3×tRNA, which expresses FSYRS and tRNA^Pyl genes. Wang et al, Nat. Neurosci., 10:1063-1072 (2007). Suppression of the 182TAG codon would produce full-length EGFP rendering cells fluorescent. After transfection, cells were incubated with FSY of various concentrations at 37° C. for 24 or 48 h followed by flow cytometry. […] The fluorescence intensity increased with FSY concentration and incubation time (FIG. 2B, FIG. 7). As a positive control, p-azido-L-phenylalanine (AzF) was incorporated into reporter cells in parallel using plasmid pIre-Azi3, which is the most efficient Uaa incorporation system in mammalian cells in our hands. Coin et al, Cell, 155:1258-1269 (2013). […] No fluorescence signal was detected when FSY was not added.
FACS analysis of Uaa incorporation into HeLa-GFP-182TAG reporter cells: One day before transfection, 4.5×10^4 HeLa-EGFP-182TAG reporter cells (Wang et al, Nat. Neurosci., 10:1063-1072 (2007)) were seeded in a Greiner bio-one 24 well-cell culture dish containing 500 μL of DMEM media with 10% FBS, and incubated at 37° C. in a CO2 incubator. […] The cells were resuspended in 300 μL of FACS buffer (1×PBS, 2% FBS, 1 mM EDTA, 0.1% sodium azide, […]) and analyzed by BD LSRFortessa™ cell analyzer.

[6] = tested on: HeLa-EGFP-182TAG reporter cells; experiment: Cell viability assay with various concentrations of FSY; assay type: cell-based
[7] = tested on: E. coli DH10B cells; experiment: Growth curve of E. coli DH10B cells in the presence or absence of FSY; assay type: cell-based; settings: 1 mM FSY, 37° C.
Procedure: FIG. 6 provides a growth curve of E. coli DH10B cells at 37° C. in the presence or absence of 1 mM FSY. The experiments were repeated for three times.
The incorporation specificity of FSY into proteins in E. coli was evaluated. The Zspa affibody (Afb) gene containing a TAG codon at position 36 (Afb-36TAG) was co-expressed with the tRNA^Pyl/FSYRS pair in E. coli. In the absence of FSY, no full-length Afb was detected; when 1 mM FSY was added in growth media, full-length Afb36FSY was produced with a yield of 1.6 mg/L (FIG. 1C). The purified Afb36FSY was analyzed by electrospray ionization time-of-flight mass spectrometry (ESI-TOF MS) (FIG. 1D). A peak observed at 7855.96 Da corresponds to intact Afb containing FSY at site 36 (Afb36FSY: expected 7856.69 Da). A peak measured at 7724.77 Da corresponds to Afb36FSY lacking the initiating Met (Afb36FSY-Met: expected 7725.50 Da). […] FSY was also incorporated at position 24 of the Z protein and analyzed with tandem MS.

| covalent crosslinking with the hGH receptor (band at ~50 kD) [2] | Molecule | stimulation of STAT5 phosphorylation [1] | cell morphology [3] | toxicity to 293T cells [4] | FSY incorporation relative to the AzF level ([5]; EGFP-182TAG suppression in HeLa reporter cells, AzF as positive control) | EGFP fluorescence by flow cytometry ([5]; cells transfected with pMP-FSYRS-3×tRNA, FSY at 37° C. for 24 or 48 h) | toxicity to HeLa cells [6] | E. coli growth (cytotoxicity) [7] |
| --- | --- | --- | --- | --- | --- | --- | --- | --- |
| covalently crosslinked | hGH(FSY): Human growth hormone with FSY genetically incorporated at site 68 | the same effect of stimulating STAT5 phosphorylation as the hGH(WT) |  |  |  |  |  |  |
|  | N[C@@H](Cc1ccc(OS(=O)(=O)F)cc1)C(=O)O [FSY, fluorosulfate-L-tyrosine] |  | remained normal | no obvious toxicity | 76% | Strong EGFP fluorescence | no obvious toxicity | did not affect E. coli growth |
